Data on four molecules can be found in publication PMC9388626, “STUB1 is an intracellular checkpoint for interferon gamma sensing” (Scientific Reports, 2022).

The test system of data set [1] is STUB1 (aa25-aa153). As to the kind of experiment: Thermal shift assay (SYPRO Orange). Conditions: 100 µM peptide, 10 µM protein, relative to DMSO vehicle, mean ± s.d. from three independent experiments. Type of data set: binding. The source says: The SYPRO Orange fluorescent dye (Invitrogen) was used to measure the thermal stability of recombinant STUB1 protein (aa25-aa153). With increasing temperature, binding of the dye molecule to the hydrophobic region of the denatured STUB1 results in an increase in the fluorescence intensity. The midpoint of this transition is termed the Tm. Binding of a ligand, such as peptide, stabilizes the protein and results in a melting temperature shift (ΔTm), which correlates with the binding affinity of the ligand. The thermal shift assay was conducted in a CFX96 real-time PCR detection system (Bio-Rad). A total of 50 µl mixture containing 3.125 × SYPRO Orange (Invitrogen, diluted from 5000 × DMSO stock), 100 µM peptide of interest, and 10 µM protein was prepared in a PCR 8-well strip tube. The samples were heated from 25 to 95 °C in 0.5 °C increment each cycle. The holding time for each cycle is 5 s, after which the fluorescence intensity was measured in Channel 2 (HEX) with Ex/Em: 515–535/560–580 nm. Each independent experiment was performed in technical duplicates.

In data set [2] the test system is STUB1. More on the design: method as in PMID 31320752. Conditions: cited from earlier work.
Data set [3] addresses T1, STUB1 (aa25–aa153) (Homo sapiens, UniProt Q9UNE7).
T1 sequence (Q9UNE7 25-153): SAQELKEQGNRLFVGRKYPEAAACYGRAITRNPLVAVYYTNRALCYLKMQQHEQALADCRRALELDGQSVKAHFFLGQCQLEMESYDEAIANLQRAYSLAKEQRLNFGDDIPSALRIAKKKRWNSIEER
As to the kind of experiment: Isothermal titration calorimetry. Type of data set: binding. Conditions: ITC. Here is the method: Recombinant STUB1 protein, spanning aa25-aa153, was produced by Nanyang Technological University protein production platform. The purity and identity of the protein was confirmed by mass spectrometry and SDS-PAGE. Synthetic peptides, in a form of N-acetylation and free C-terminal carboxylic acid, were custom made by Chinese Peptide Company (CPC). The purity and identity of the peptides were confirmed by analytic HPLC (≥ 95% purity) and mass spectrometry. Peptides are dissolved in neat DMSO as 10 mM stock solution and diluted thereof for subsequent experiments.
Recombinant STUB1 protein (aa25-aa153) was dialyzed overnight with Slide-A-Lyzer cassette (7 K MWCO, Thermo Scientific, #66373) in 1 L of dialysis buffer (PBS, pH 7.4, 0.5 mM TCEP). The dialyzed protein solution was centrifuged at 15,000 rpm for 10 min at 4 °C to remove potential precipiates. The protein was diluted to 20 µM using the dialysis buffer, followed by the additon of DMSO spike-in (2% final concentration). The synthetic peptides (10 mM in DMSO) were diluted to 200 µM with the dialysis buffer (2% final DMSO concentration). ITC measurements were performed at 25 °C using a Microcal PEAQ-ITC (Malvern Panalytical Inc). An initial injection of 0.4 µl followed by a total of 39 injections of peptide solution (1 µl, 200 µM) were added at an intervals of 2 min into the protein solution (20 µM) while stirring at 750 rpm. The data point produced by the first injection was discarded prior to curve fitting in order to account for the diffusion effect during the equilibration process. The experimental data were fitted to a non-interacting one-site binding model using the analysis software supplied by Microcal, with ΔH (enthalpy change), Ka (association constant) and N (number of binding sites per monomer) as adjustable parameters. Free energy change (ΔG) and entropy contributions (TΔS) were determined from the standard equation: ΔG = ΔH − TΔS = − RT lnKa, where T is the absolute temperature and R = 1.987 cal mol^−1 K^−1.

In data set [4] the test system is STUB1. Kind of data set: Co-immunoprecipitation of FLAG-mCherry2-peptide and STUB1. In kind it is binding, murine. Conditions: spiked into co-IP mixture, room temperature, 4 h. Here is the method:
B16-F10 cells stably expressing the biologic were harvested, rinsed with PBS, and lysed with chilled cell lysis buffer (Cell Signaling Technology, #9803) supplemented with Halt protease inhibitor cocktail (Life Technologies, #78430) and phosphatase inhibitor (Sigma-Aldrich, # 4906837001). Cellular lysates were clarified by centrifugation at 15,000 rpm at 4 °C for 15 min. Protein concentration was determined using BCA protein assay kit (Pierce, #23225). For each sample of the co-immunoprecipitation (co-IP), 20 µl of anti-FLAG magnetic beads (Sigma-Aldrich, M8823) was rinsed twice with 0.2 ml PBS, followed by addition of 500 µl diluted cellular lysate (60 µg, 0.12 µg µl^−1). For competitive inhibition, synthetic peptide (SIWWPD) was added into the co-IP mixture. The resulting mixture was rotated at room temperature for 4 h, after which the beads were rinsed with 3 × 0.5 ml PBS to remove the unbound proteins. Bound protein complexes were directly eluted with a 20 µl solution of LDS sample buffer (Life Technologies, NP0008) supplemented with sample reducing agent (Life Technologies, NP0009), followed by heating at 70 °C for 10 min. […] Blotting was similar to the Western Blot section described above. Primary antibodies used were: STUB1/CHIP (Cell Signaling Technology, #2080, 1:1000 dilution), FLAG (Sigma-Aldrich, F1804, 1:1000 dilution). […]

The target of data set [5] is T1, STUB1 (aa25–aa153). As to the kind of experiment: Competitive fluorescence polarization assay. In kind it is binding. The note with it: 15 nM 5-FAM-[…] tracer, 1 µM STUB1, PBS pH 7.4, 0.01% Tween 20, room temperature, 30 min; mean ± s.e., six replicates from two independent experiments. Here is the method:
The assays were performed at room temperature using assay buffer (PBS, pH 7.4, 0.01% v/v Tween 20) and black 384-well non-binding polystyrene microplate (Greiner Bio-one, #784900). The peptide of interest was first diluted (10-point, threefold serial dilution) with the assay buffer on the microplate to have a volume of 10 µl in each well. This was followed by the addition of 10 µl mixture containing 5-FAM-[…]-CO2H (30 nM) and the recombinant STUB1 protein (2 µM). The final assay solution (20 µl) contains 5-FAM-labeled tracer peptide (15 nM), protein (1 µM) and peptide of interest (5 nM to 100 µM). After 30 min incubation in the dark, the microplate was read with TECAN Infinite M1000 PRO (Ex: 470 nm, Em: 520 nm, bandwidth: 5 nm, G-factor = 1.05, gain: optimal, #flashes = 10, settle time = 0 ms, z position: calculated from well). Value of polarization (mP) = 1000 × (G × intensity‖ − intensity ⊥ )/(G × intensity‖ + intensity ⊥ ). Half maximal inhibitory concentration (IC50) was determined by fitting the curve using 4-parameter sigmoidal function in GraphPad Prism. Each independent experiment was performed in technical triplicates.

Data set [6] deals with T2, Recombinant STUB1 protein, spanning aa25-aa153 (UniProt Q9UNE7 25-153).
T2 construct: STUB1 (E3 ligase, also STUB1/CHIP), residues 25-153; also called STUB1 (aa25–aa153); CHIP; source: recombinant, produced by Nanyang Technological University protein production platform; purity and identity confirmed by mass spectrometry and SDS-PAGE
T2 sequence (looked up): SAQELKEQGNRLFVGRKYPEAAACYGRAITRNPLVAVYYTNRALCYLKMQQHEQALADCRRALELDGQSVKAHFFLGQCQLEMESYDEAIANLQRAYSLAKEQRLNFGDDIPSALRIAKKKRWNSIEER
As to the kind of experiment: fluorescence polarisation; competitive; 15 nM tracer 5-FAM-…, 1 µM STUB1 aa25-aa153, peptide of interest 5 nM to 100 µM; room temperature; PBS pH 7.4, 0.01% v/v Tween 20; 30 min incubation. The note with it: both partners purified.

Data set [7] has as its target T2, Recombinant STUB1 protein, spanning …. As to the kind of experiment: ITC; peptide (200 µM) injected into STUB1 aa25-aa153 (20 µM); 25 °C; PBS pH 7.4, 0.5 mM TCEP, 2% DMSO; one-site binding model. The note with it: both partners purified.
Data set [8] shares this target. Kind of data set: thermal shift assay; SYPRO Orange; 100 µM peptide, 10 µM STUB1 aa25-aa153; heated from 25 to 95 °C in 0.5 °C increments. The note with it: both partners purified.
Data set [9] addresses T3, Recombinant STUB1 protein, spanning aa25-aa153 (UniProt Q9UNE7 25-153).
T3 chain: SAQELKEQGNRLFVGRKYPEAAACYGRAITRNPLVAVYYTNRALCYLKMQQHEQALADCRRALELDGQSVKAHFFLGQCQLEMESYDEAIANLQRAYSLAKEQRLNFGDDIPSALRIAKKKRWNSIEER
As to the kind of experiment: FP.

Data set [10] deals with T3, Recombinant STUB1 protein, spanning …. Kind of data set: ITC.

Peptide text beside a SMILES is read from it. Bounds are passed on as bounds.

Regarding `CC[C@H](C)[C@H](NC(=O)[C@H](CO)NC(C)=O)C(=O)N[C@@H](Cc1c[nH]c2ccccc12)C(=O)N[C@@H](Cc1c[nH]c2ccccc12)C(=O)N1CCC[C@H]1C(=O)N[C@@H](CC(=O)O)C(=O)O` [SIWWPD, reference compound] (Ac-SIWWPD-OH), the ΔTm in data set [1] came to 18.3 ± 0.1 °C. The “Blocking of STUB1 interaction with HSPA8” value in data set [2] is “capable of blocking the interaction of STUB1 with HSPA8”. For the same molecule, the “Binding to STUB1” value in [3] is given as “bound strongly to the protein”. The “Reversal of co-immunoprecipitation by synthetic peptide” value in data set [4] is “completely reversible in a dose-dependent manner”.

Molecule `CC[C@H](C)[C@H](NC(=O)[C@H](CO)NC(C)=O)C(=O)N[C@@H](Cc1c[nH]c2ccccc12)C(=O)N[C@@H](Cc1c[nH]c2ccccc12)C(=O)N[C@@H](Cc1c[nH]cn1)C(=O)N[C@@H](CCCNC(=N)N)C(=O)O` [SIWWHR] (Ac-SIWWHR-OH) showed a half-inhibitory concentration (IC50) in data set [5] of over 100000 nM. In addition, in data set [1], the ΔTm was -0.1 ± 0.2 °C. Besides, the “Binding to STUB1” value in [3] is recorded as “non-binding”. Besides, the Kd in [3] (PBS pH 7.4, 0.5 mM TCEP, 2% DMSO, 25 °C, 200 µM peptide into 20 µM protein) was over 10000 nM.

B1: synthetic inhibitory peptide SIWWPD (peptide)
peptide: Ac-SIWWPD-OH
notes: source: synthetic peptide, custom made by Chinese Peptide Company (CPC)
As for B1, in data set [6], the IC50 stood at 340 nM. In addition, the dissociation constant Kd in [7] is 14 ± 2 nM. In addition, in data set [8], the ΔTm is 18.3 °C.

Turning to Ac-TIEEVD-OH, the IC50 in data set [9] is 2700 nM. Besides, the Kd in data set [10] turned out to be 2190 nM.
